The source of these data is PubChem BioAssay AID1963825 (Molecular Pharmacology Branch, DTP, NCI, 2024).

A short description of this experiment: Anticancer human tumor 997537-175-T-J1-PDC patient-derived colon adenocarcinoma cell line growth inhibition [POLQ]. As to conditions: 997537-175-T-J1-PDC complex spheroid viability, combination with POLQ inhibitors; for viability, T/C: stronger effect = lower value; for IC50: curve of compound. How it is done:
Multicellular complex tumor spheroid response to Polymerase (POL) inhibitors (novobiocin, ART-558, RP6685) in combination with a variety of drugs and investigational agents in selected tumor cell lines
The POL inhibitors (novobiocin, ART-558, and RP6685) were evaluated both individually and in combination with standard of care and investigational anticancer small molecules within a complex spheroid model of solid tumors. . Complex spheroids include a stromal component modeled by human endothelial cells (HUVEC) and fibroblasts modeled by human mesenchymal stem cells (MSCs). The concentration ranges selected for each drug and investigational agent were based upon clinically achievable concentrations if the clinical Cmax of the agent was known.
Compounds. The drugs and investigational agents: novobiocin (NSC847541), ART-558 (NSC835418), RP-6685 (NSC848927), peposertib (NSC802822), ceralasertib (NSC780249), elimusertib (NSC800525), camonsertib (NSC841442), AZD-1390 (NSC803789), olaparib (NSC753686), talazoparib (NSC767125), rucaparib (NSC756644), sotorasib (NSC818433), MRTX-1133 (NSC836407), SN-38 (NSC673596), topotecan (NSC609699), epotoside (NSC141540), doxorubicin (NSC123127), gemcitabine (NSC613327), 5-fluorouracil (NSC19893), paclitaxel (NSC125973), vemurafenib (NSC761431), MSA-2 (NSC828583), SN-011 (NSC837082), adavosertib (NSC754352), prexasertib (NSC758257), carboplatin (NSC241240) and oxaliplatin (NSC266046), were obtained from the National Cancer Institute (NCI) Developmental Therapeutics Program Chemical Repository (21). The FDA-approved anticancer drug set is available from the Developmental Therapeutics Program at https://dtp.cancer.gov/organization/dscb/obtaining/. […] The stock solutions were prepared in dimethyl sulfoxide (DMSO, Sigma-Aldrich, St. Louis, MO, cat. D2650), except for the platinum compounds which were prepared in saline (Quality Biological, Gaithersburg, MD, cat. 114-055-101), at 800-fold the tested concentration and stored at -70 degrees C prior to their use. All drugs and investigational agents were tested over a range starting from a high concentration at or near the clinical Cmax and decreasing in half-log increments. If the clinical Cmax for an agent had not been determined, the highest concentration tested was 10 microM, except for SN-38, which was tested at a high concentration of 1 microM.
Cell Culture. All cells were maintained in an incubator at 37 degrees C and 5% CO2 with 95% humidity. The PDC lines were cultured according to standard operating procedures established by the NCI PDMR (https://pdmr.cancer.gov). Table 3 of the manuscript, lists the cell lines along with the number of the three cell types plated to form the mct-spheroids and media for tumor cell growth. After thawing, all PDC lines, except 997537-175-T-J1-PDC and 415267-285-R-J2-PDC, were cultured in Matrigel-coated flasks prepared with a working solution of 1X Ham's F-12 nutrient mix, without supplementation (Thermo Fisher Scientific, cat. 11765054), 100 U/mL penicillin-streptomycin (Thermo Fisher Scientific, cat. 15140122), and 2.5% Matrigel (Corning Inc., Corning, NY, cat. 354248) for the first three passages. The two PDC lines 997537-175-T-J1-PDC and 415267-285-R-J2-PDC were cultured on uncoated flasks. The 857933-349-R-J2-PDC line was cultured in 6C/Colon 1B media containing advanced DMEM/F-12 (Thermo Fisher Scientific, cat. 12634028), 10 mM HEPES (Thermo Fisher Scientific, cat. 15630080), 1X GlutaMAX supplement (Thermo Fisher Scientific, cat. 35050061), 0.1 mg/mL primocin (InvivoGen, San Diego, CA, cat. ant-pm-2), 10% defined fetal bovine serum, heat inactivated (HyClone Laboratories Inc., Logan, UT, cat. SH30070.03HI), 50% L-WRN conditioned media (ATCC, cat. CRL-3276), 1.25 mM N-Acetyl-L-cysteine (Sigma-Aldrich, cat. A9165), 10 mM nicotinamide (Sigma-Aldrich, cat. N0636), 1X B-27 supplement (Thermo Fisher Scientific, cat. 17504044), 1X N-2 supplement (Thermo Fisher Scientific, cat. […]

Where “and” joins values, the source holds several entries; their conditions need not be identical. Equal values may be shown once. Where only a bound is given, the exact number is not on record here.
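Also: luminescence signal used as a surrogate for viable cells; spheroids exposed to drugs for seven days before readout.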

As a reminder, the viability, T/C is the ratio of treated to control. What is called IC50 is the concentration at which inhibition is half-maximal. Regarding `C=CCn1c(=O)c2cnc(Nc3ccc(N4CCN(C)CC4)cc3)nc2n1-c1cccc(C(C)(C)O)n1`, the IC50 is greater than 1000 nM. For the setting “compound 0.00316 µM”, the viability, T/C was 98.4% and 90.3% and 83.5%. For the same compound, the viability, T/C (compound 0.01 µM) was 96.6% and 88.9% and 102%. In addition, the viability, T/C (compound 0.0316 µM) is 73.2% and 89.1% and 83.6%. Moreover, the viability, T/C (compound 0.1 µM) was 94% and 101% and 86.6%. For the same compound, for the setting “compound 0.316 µM”, the viability, T/C was 95.9% and 94.9% and 76.8%. Further, the viability, T/C (compound 1 µM) is 74.5% and 63.4% and 69.5%.
In the case of `CC(=O)O[C@H]1C(=O)[C@@]2(C)[C@H]([C@H](OC(=O)c3ccccc3)[C@]3(O)C[C@H](OC(=O)[C@H](O)[C@@H](NC(=O)c4ccccc4)c4ccccc4)C(C)=C1C3(C)C)[C@]1(OC(C)=O)CO[C@@H]1C[C@@H]2O`, the IC50 was 12.5 nM and 20.7 nM and < 9.49 nM. For the same compound, for the setting “compound 0.00949 µM”, the viability, T/C was 55.5% and 66.9% and 49.9%. The viability, T/C (compound 0.03 µM) was 33.4% and 42.3% and 41.3%. Further, for the setting “compound 0.0949 µM”, the viability, T/C is 22.8% and 35.5% and 38.7%. In addition, the viability, T/C (compound 0.3 µM) was 32.1% and 41.2% and 22.7%. Under “compound 0.949 µM”, the viability, T/C is 32% and 28.6% and 22%. Besides, under “compound 3 µM”, the viability, T/C is 30.9% and 40.5% and 33.2%.
For the compound `CC1COCCN1c1cc(-c2ccnn2C)c2ccnc(-c3ccn[nH]3)c2n1` (stereo not given), the viability, T/C is, setting by setting: (compound 0.0316 µM) 94.7% and 97.9% and 86.9%; (compound 0.1 µM) 62% and 63.5% and 79.7%; (compound 0.316 µM) 64.5% and 49% and 65.9%; (compound 1 µM) 44.2% and 44.4% and 50.7%; (compound 3.16 µM) 68% and 32.4% and 51.1%; (compound 10 µM) 60.6% and 53.7% and 53.6%.
As for `CC1COCCN1c1cc(C2(S(C)(=N)=O)CC2)nc(-c2ccnc3[nH]ccc23)n1` (stereo not given), the IC50 is 9980 nM and > 10000 nM. For the same compound, the viability, T/C (compound 0.0316 µM) is 92.8% and 97.8% and 110%. In addition, the viability, T/C (compound 0.1 µM) is 99.5% and 101% and 102%. Besides, the viability, T/C (compound 0.316 µM) was 101% and 84.7% and 82.3%. The viability, T/C (compound 1 µM) is 91.7% and 86.5% and 92.7%. Further, the viability, T/C (compound 3.16 µM) is 66% and 59.8% and 74.8%. Where the note is “compound 10 µM”, the viability, T/C was 49.9% and 58.9% and 53.6%.
`CCCS(=O)(=O)Nc1ccc(F)c(C(=O)c2c[nH]c3ncc(-c4ccc(Cl)cc4)cc23)c1F`: the IC50 was 4970 nM and 7510 nM and 5500 nM. The viability, T/C (compound 0.0316 µM) is 97.4% and 90.7% and 82.4%. Further, under “compound 0.1 µM”, the viability, T/C was 82.1% and 86.5% and 97.7%. For the same compound, where the note is “compound 0.316 µM”, the viability, T/C was 88.1% and 82.6% and 89.7%. Where the note is “compound 1 µM”, the viability, T/C was 86.5% and 84.5% and 82.5%. The viability, T/C (compound 3.16 µM) was 65.1% and 72.9% and 76%. The viability, T/C (compound 10 µM) was 26.5% and 42% and 22.9%.
Regarding `CC[C@@]1(O)C(=O)OCc2c1cc1n(c2=O)Cc2cc3c(CN(C)C)c(O)ccc3nc2-1`, the IC50 is greater than 100 nM. Further, where the note is “compound 0.000316 µM”, the viability, T/C is 100% and 93.8% and 93.3%. For the same compound, the viability, T/C (compound 0.001 µM) is 96.1% and 102% and 112%. Besides, where the note is “compound 0.00316 µM”, the viability, T/C is 98.1% and 91.1% and 111%. Also, the viability, T/C (compound 0.01 µM) was 105% and 101% and 97.3%. For the setting “compound 0.0316 µM”, the viability, T/C was 94.5% and 75.5% and 93%. For the same compound, where the note is “compound 0.1 µM”, the viability, T/C is 71.6% and 61.9% (2×).
In the case of `CCc1c2c(nc3ccc(O)cc13)-c1cc3c(c(=O)n1C2)COC(=O)[C@]3(O)CC`, the IC50 is 17.2 nM and 19.9 nM and 18.4 nM. Further, the viability, T/C (compound 0.00316 µM) was 68.9% and 81% and 97.3%. Moreover, the viability, T/C (compound 0.01 µM) is 63.4% and 64.7% and 67%. For the same compound, the viability, T/C (compound 0.0316 µM) is 35.3% and 40.2% and 35.2%. Further, the viability, T/C (compound 0.1 µM) is 19.1% and 17.6% and 15.7%. Moreover, the viability, T/C (compound 0.316 µM) was 5.98% and 6.37% and 8.27%. For the same compound, the viability, T/C (compound 1 µM) was 5.57% and 4.62% and 6.01%.
`CNCc1ccc(-c2[nH]c3cc(F)cc4c3c2CCNC4=O)cc1`: the half-inhibitory concentration (IC50) was greater than 10000 nM. For the same compound, the viability, T/C (compound 0.0316 µM) is 90.4% and 94.4% and 96.8%. The viability, T/C (compound 0.1 µM) is 96.6% and 93.5% and 90.8%. Further, the viability, T/C (compound 0.316 µM) is 91% and 108% and 106%. Further, under “compound 1 µM”, the viability, T/C is 98.3% and 93.2% and 88.9%. Further, the viability, T/C (compound 3.16 µM) was 100% and 103% and 99.9%. Further, the viability, T/C (compound 10 µM) is 95% and 98.8% and 89.1%.
